Measured values published in patent US9295255B2, “Use of dithiine derivatives in crop protection and the protection of materials” (Bayer Intellectual Property GmbH, priority 2010, dated 2016).

Key:
Alternaria solani = assay: Alternaria test (tomato)/protective; format: in vivo; details: young tomato plants sprayed, 1500 ppm, protective; evaluation 7 days following inoculation; 0% = control, 100% = no infestation
Phytophthora infestans = format: in vivo; details: young tomato plants sprayed, 1500 ppm, protective; evaluation 7 days following inoculation; 0% = control, 100% = no infestation
Plasmopara viticola = assay: Plasmopara test (grapevine)/protective; format: in vivo; details: young grapevine plants sprayed, 250 ppm, protective; evaluation 6 days following inoculation; 0% = control, 100% = no infestation
Excerpt: (§1) An appropriate preparation of active compound is produced by mixing 1 part by weight of active compound with the stated amounts of solvent and emulsifier and diluting the concentrate with water to the desired concentration. To test for protective activity, young plants are sprayed with the preparation of active compound at the stated application rate. After the spray coating has dried on, the plants are inoculated with an aqueous spore suspension of Plasmopara viticola and then spend 1 day in an incubation cabin at approximately 20° C. and 100% relative humidity. Subsequently the plants are placed for 4 days in a greenhouse at approximately 21° C. and approximately 90% humidity. The plants are then moistened and placed in an incubation cabin for 1 day. After 6 days following inoculation, evaluation takes place. Here, 0% denotes an efficacy which corresponds to that of the control, whereas an efficacy of 100% means that no infestation is observed.

Botrytis cinerea = assay: Botrytis test (bean)/protective; format: in vivo; details: young bean plants sprayed, 500 ppm, protective; size of infestation spots 2 days following inoculation; 0% = control, 100% = no infestation
Excerpt: An appropriate preparation of active compound is produced by mixing 1 part by weight of active compound with the stated amounts of solvent and emulsifier and diluting the concentrate with water to the desired concentration. To test for protective activity, young plants are sprayed with the preparation of active compound at the stated application rate. After the spray coating has dried on, 2 small pieces of agar on which Botrytis cinerea is growing are placed on each leaf. The inoculated plants are placed in a darkened chamber at approximately 20° C. and 100% relative humidity. After 2 clays following inoculation, the size of the infestation spots on the leaves is evaluated. Here, 0% denotes an efficacy which corresponds to that of the control, whereas an efficacy of 100% means that no infestation is observed.

Venturia inaequalis = assay: Venturia test (apple)/protective; format: in vivo; details: young apple plants sprayed, 250 ppm, protective; evaluation 10 days following inoculation; 0% = control, 100% = no infestation
Excerpt: as §1, with “conidia” for “spore”, “the causative organism of apple scab, Venturia inaequalis,” for “Plasmopara viticola”, “placed” for “placed for 4 days”, “humidity.” for “humidity. The plants are then moistened and placed in an incubation cabin for 1 day.”, “10 clays” for “6 days”

[1] = log P determination by HPLC on reversed-phase column (EEC Directive 79/831 Annex V.A8); format: physicochemical; details: reversed-phase C18 HPLC column, reversed-phase C 18, 43° C., acidic range pH 2.7, 0.1% aqueous formic acid/acetonitrile
Procedure: The log P values reported in the preparation examples and tables above are determined in accordance with EEC Directive 79/831 Annex V.A8 by means of HPLC (High Performance Liquid Chromatography) on a reversed-phase column (C 18). Temperature: 43° C.
The determination with the LC-MS in the acidic range takes place at a pH of 2.7 using 0.1% aqueous formic acid and acetonitrile (containing 0.1% formic acid) as eluents: linear gradient from 10% acetonitrile to 95% acetonitrile.
Calibration takes place using unbranched alkan-2-ones (having 3 to 16 carbon atoms) of which the log P values are known (log P values determined on the basis of the retention times, by linear interpolation between two successive alkanones).

Cc1c(C)c(=O)c2sc(C#N)c(C#N)sc=2c1=O [Compound 43, 6,7-dimethyl-5,8-dioxo-5,8-dihydro-1,4-benzodithiine-2,3-dicarbonitrile]
Efficacy in % (Alternaria solani): 100%

COc1c(Cl)c(=O)c2sc(C#N)c(C#N)sc=2c1=O [Compound 44, 6-chloro-7-methoxy-5,8-dioxo-5,8-dihydro-1,4-benzodithiine-2,3-dicarbonitrile]
Efficacy in % (Alternaria solani): 100%

CC(C)(C)c1cc(=O)c2sc(C#N)c(C#N)sc=2c1=O [Compound 45, 6-tert-butyl-5,8-dioxo-5,8-dihydro-1,4-benzodithiine-2,3-dicarbonitrile]
Efficacy in % (Phytophthora infestans): 78%

Cc1c(C)c(O)c2c(c1O)SC(C#N)=C(C#N)S2 [Compound 47, 5,8-dihydroxy-6,7-dimethyl-1,4-benzodithiine-2,3-dicarbonitrile]
Efficacy in % (Alternaria solani): 100% | Efficacy in % (Plasmopara viticola): 92% | Efficacy in % (Botrytis cinerea): 100% | Efficacy in % (Venturia inaequalis): 100% | chromatographic logP [1]: 2.26 | Efficacy in % (Phytophthora infestans): 89%

COc1c(O)c2c(c(O)c1Cl)SC(C#N)=C(C#N)S2 [Compound 48, 6-chloro-5,8-dihydroxy-7-methoxy-1,4-benzodithiine-2,3-dicarbonitrile]
Efficacy in % (Alternaria solani): 100% | Efficacy in % (Plasmopara viticola): 90% | Efficacy in % (Botrytis cinerea): 97% | Efficacy in % (Venturia inaequalis): 100% | chromatographic logP [1]: 2.19 | Efficacy in % (Phytophthora infestans): 94%

CC(C)(C)c1cc(O)c2c(c1O)SC(C#N)=C(C#N)S2 [Compound 49, 6-tert-butyl-5,8-dihydroxy-1,4-benzodithiine-2,3-dicarbonitrile]
Efficacy in % (Alternaria solani): 100% | Efficacy in % (Plasmopara viticola): 92% | Efficacy in % (Botrytis cinerea): 96% | Efficacy in % (Venturia inaequalis): 100% | chromatographic logP [1]: 2.95 | Efficacy in % (Phytophthora infestans): 94%
